{"source": "ChEMBL document CHEMBL1156187", "about": "“Discovery of a selective small-molecule melanocortin-4 receptor agonist with efficacy in a pilot study of sexual dysfunction in humans” (J Med Chem, 2010)", "key": {"[1]": {"assay": "Intrinsic clearance in human liver microsome measured per mg of protein", "format": "ADME", "conditions": "liver microsomes"}, "[2]": {"assay": "Intrinsic clearance in dog liver microsome measured per mg of protein", "format": "ADME, Canis lupus familiaris", "conditions": "microsomes"}, "Liver microsomes": {"test_system": "Liver microsomes", "assay": "Intrinsic clearance in rat liver microsome measured per mg of protein", "format": "ADME"}, "[3]": {"assay": "Clearance in rat at 1 mg/kg, iv", "format": "ADME, organism-based", "set-up": "dose 1 mg/kg, route intravenous", "conditions": "in vivo"}, "[4]": {"assay": "Half life in rat at 1 mg/kg, iv", "format": "ADME, organism-based", "set-up": "dose 1 mg/kg, route intravenous", "conditions": "in vivo"}, "Melanocortin receptor 5 [5]": {"target": "T1, Melanocortin receptor 5 (Homo sapiens, UniProt P33032)", "T1 sequence (P33032 whole entry)": "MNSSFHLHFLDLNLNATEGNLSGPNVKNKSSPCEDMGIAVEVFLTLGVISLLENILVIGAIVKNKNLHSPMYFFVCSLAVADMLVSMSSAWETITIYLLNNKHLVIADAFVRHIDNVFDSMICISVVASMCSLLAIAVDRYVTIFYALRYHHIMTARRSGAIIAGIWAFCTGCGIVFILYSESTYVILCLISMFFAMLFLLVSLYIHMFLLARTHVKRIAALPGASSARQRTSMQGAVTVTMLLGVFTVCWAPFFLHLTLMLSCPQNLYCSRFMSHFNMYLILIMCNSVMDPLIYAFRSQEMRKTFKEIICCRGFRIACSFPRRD", "assay": "Agonist activity at human recombinant MC5 receptor expressed in HEK293 cells assessed as cAMP accumulation by beta lactamase reporter gene assay", "format": "functional, cell-based"}, "[6]": {"target": "T2, Melanocyte-stimulating hormone receptor (Homo sapiens, UniProt Q01726)", "assay": "Agonist activity at human recombinant MC1 receptor expressed in HEK293 cells assessed as cAMP accumulation by enzyme fragment complementation assay relative to alpha melanocyte-stimulating hormone", "format": "functional, cell-based"}, "[7]": {"assay": "Apparent Permeability from apical to basolateral side of MDCK2 cells over expressing MDR1", "format": "ADME, cell-based, Canis lupus familiaris", "conditions": "dog, MDCK-MDR1; read-out: permeability"}, "[8]": {"assay": "Clearance in dog plasma at 0.05 mg/kg, iv", "format": "ADME, organism-based, Canis lupus familiaris", "set-up": "dose 0.05 mg/kg, route intravenous"}, "[9]": {"assay": "Apparent Permeability from basolateral to apical side of MDCK2 cells over expressing MDR1", "format": "ADME, cell-based, Canis lupus familiaris", "conditions": "dog, MDCK-MDR1; read-out: permeability"}, "[10]": {"assay": "Oral bioavailability in dog at 0.1 mg/kg", "format": "ADME, organism-based, Canis lupus familiaris", "conditions": "in vivo"}, "[11]": {"assay": "Association constant, pKa of the compound", "format": "physicochemical"}, "[12]": {"assay": "Volume of distribution at steady state in dog plasma at 0.05 mg/kg, iv", "format": "ADME, organism-based, Canis lupus familiaris", "set-up": "dose 0.05 mg/kg, route intravenous", "conditions": "read-out: Vdss"}, "[13]": {"assay": "Volume of distribution at steady state in rat at 1 mg/kg, iv", "format": "ADME, organism-based", "set-up": "dose 1 mg/kg, route intravenous", "conditions": "in vivo, read-out: Vdss"}, "[14]": {"assay": "Fraction unbound in dog plasma", "format": "ADME, cell-free, Canis lupus familiaris"}, "[15]": {"target": "T2, Melanocyte-stimulating hormone receptor", "assay": "Agonist activity at human recombinant MC1 receptor expressed in HEK293 cells assessed as cAMP accumulation by enzyme fragment complementation assay", "format": "functional, cell-based"}, "Melanocortin receptor 4 [16]": {"target": "T3, Melanocortin receptor 4 (Homo sapiens, UniProt P32245)", "T3 sequence (P32245 whole entry)": "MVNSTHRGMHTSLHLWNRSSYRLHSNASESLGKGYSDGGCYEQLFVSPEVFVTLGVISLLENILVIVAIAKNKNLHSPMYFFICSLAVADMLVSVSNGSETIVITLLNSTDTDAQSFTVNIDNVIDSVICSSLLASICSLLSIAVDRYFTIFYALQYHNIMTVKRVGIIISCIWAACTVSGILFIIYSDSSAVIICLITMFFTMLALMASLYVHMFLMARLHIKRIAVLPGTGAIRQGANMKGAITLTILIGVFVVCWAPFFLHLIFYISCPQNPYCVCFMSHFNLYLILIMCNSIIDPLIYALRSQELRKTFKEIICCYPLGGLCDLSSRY", "assay": "Displacement of [125I]-MT-II from human recombinant MC4 receptor expressed in CHO cells by scintillation counting"}, "Melanocortin receptor 3 [17]": {"target": "T4, Melanocortin receptor 3 (Homo sapiens, UniProt P41968)", "T4 sequence (P41968 whole entry, the tested form may be a part)": "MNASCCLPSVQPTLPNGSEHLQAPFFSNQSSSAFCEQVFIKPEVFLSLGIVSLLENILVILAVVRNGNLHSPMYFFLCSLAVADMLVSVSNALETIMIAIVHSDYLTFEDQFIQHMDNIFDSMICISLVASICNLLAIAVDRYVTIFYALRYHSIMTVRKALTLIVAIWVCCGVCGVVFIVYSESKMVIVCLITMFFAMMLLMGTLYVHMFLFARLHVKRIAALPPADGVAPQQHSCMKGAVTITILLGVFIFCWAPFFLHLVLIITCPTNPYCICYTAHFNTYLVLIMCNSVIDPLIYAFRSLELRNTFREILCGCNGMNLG", "assay": "Agonist activity at human recombinant MC3 receptor expressed in CHO cells assessed as cAMP accumulation by enzyme fragment complementation assay relative to […]", "format": "functional, cell-based"}, "[18]": {"assay": "Half life in dog at 0.05 mg/kg, iv", "format": "ADME, organism-based, Canis lupus familiaris", "set-up": "dose 0.05 mg/kg, route intravenous", "conditions": "in vivo"}, "[19]": {"assay": "Oral bioavailability in rat at 0.1 mg/kg", "format": "ADME, organism-based", "conditions": "in vivo"}, "Melanocortin receptor 5 [20]": {"target": "T1, Melanocortin receptor 5", "assay": "Agonist activity at human recombinant MC5 receptor expressed in HEK293 cells assessed as cAMP accumulation by beta lactamase reporter gene assay relative to alpha melanocyte-stimulating hormone", "format": "functional, cell-based"}, "[21]": {"assay": "Binding affinity to sodium channel"}, "Melanocortin receptor 4 [22]": {"target": "T3, Melanocortin receptor 4", "assay": "Agonist activity at human recombinant MC4 receptor expressed in CHO cells by cAMP responsive beta lactamase reporter gene assay", "format": "functional, cell-based"}, "[23]": {"assay": "Fraction unbound in rat plasma", "format": "ADME, cell-free"}, "Melanocortin receptor 3 [24]": {"target": "T4, Melanocortin receptor 3", "assay": "Agonist activity at human recombinant MC3 receptor expressed in CHO cells assessed as cAMP accumulation by enzyme fragment complementation assay", "format": "functional, cell-based"}, "[25]": {"assay": "Lipophilicity, log D at pH 7.4", "format": "physicochemical", "conditions": "buffer"}}, "data": [{"smiles": "C[C@@H]1CN(C(=O)[C@@H]2CN(C(C)(C)C)C[C@H]2c2ccc(F)cc2F)C[C@H](C)[C@@]1(O)c1ccc(F)cc1.Cl", "values": [{"measurement": "microsomal CLint", "setting": "[1]", "value": 28, "unit": "µL/min/mg"}, {"measurement": "clearance", "setting": "[2]", "value": 8, "unit": "µL/min/mg"}, {"measurement": "clearance", "setting": "Liver microsomes", "value": 47, "unit": "µL/min/mg"}, {"measurement": "clearance", "setting": "[3]", "value": 34, "unit": "mL/min/kg"}, {"measurement": "half-life", "setting": "[4]", "value": 3.9, "unit": "h"}, {"measurement": "EC50", "setting": "Melanocortin receptor 5 [5]", "value": 3600, "unit": "nM"}, {"measurement": "Emax", "setting": "[6]", "value": 99, "unit": "%"}, {"measurement": "Papp A→B", "setting": "[7]", "value": 26, "unit": "×10⁻⁶ cm/s"}, {"measurement": "clearance", "setting": "[8]", "value": 12, "unit": "mL/min/kg"}, {"measurement": "Papp B→A", "setting": "[9]", "value": 22, "unit": "×10⁻⁶ cm/s"}, {"measurement": "bioavailability", "setting": "[10]", "value": 28, "unit": "%"}, {"measurement": "pKa", "setting": "[11]", "value": 8.74}, {"measurement": "Vd", "setting": "[12]", "value": 11, "unit": "L/kg"}, {"measurement": "Vd", "setting": "[13]", "value": 11, "unit": "L/kg"}, {"measurement": "fraction unbound", "setting": "[14]", "value": 0.09}, {"measurement": "EC50", "setting": "[15]", "value": 1120, "unit": "nM"}, {"measurement": "Ki", "setting": "Melanocortin receptor 4 [16]", "value": 36, "unit": "nM"}, {"measurement": "Emax", "setting": "Melanocortin receptor 3 [17]", "value": 79, "unit": "%"}, {"measurement": "half-life", "setting": "[18]", "value": 10.4, "unit": "h"}, {"measurement": "bioavailability", "setting": "[19]", "value": 74, "unit": "%"}, {"measurement": "Emax", "setting": "Melanocortin receptor 5 [20]", "value": 116, "unit": "%"}, {"measurement": "Ki", "setting": "[21]", "value": 520, "unit": "nM"}, {"measurement": "EC50", "setting": "Melanocortin receptor 4 [22]", "value": 18, "unit": "nM"}, {"measurement": "fraction unbound", "setting": "[23]", "value": 0.04}, {"measurement": "EC50", "setting": "Melanocortin receptor 3 [24]", "value": 3050, "unit": "nM"}, {"measurement": "logD", "setting": "[25]", "value": 3.1}]}]}
